Measurements taken from US20120128807A1, “COMPOSITION FOR PREVENTING OR TREATING IRRITABLE BOWEL SYNDROME” (SK CHEMICALS CO., LTD., priority 2009, published 2012).

How the values were obtained:
[1] = molecular target: T1, neurokinin receptor (U-373MG glioma cell line) (Homo sapiens, UniProt P25103); experiment: Neurokinin receptor inhibition: binding of fluorescent substance P to U-373MG cells; conditions: 50 nM sample, 50nM SP
T1 construct: Cell line (U-373MG glioma cell line) over-expressing neurokinin receptor; host or cells: U-373MG glioma cell line
Description: Cell line (U-373MG glioma cell line) over-expressing neurokinin receptor was purchased from Korean Cell Line Bank. The cell line was incubated with 5% CO2 in a medium (90% of RPMI 1640, 10% of fetal bovine serum, 100 IU/ml of penicillin, 100 μg/ml of streptomycin, 2 mM of L-glutamine, and 1.0 mM of sodium pyruvate), and was sub-cultured every 6-8 days with 0.25% trypsin solution.
Cells were diluted to have various cell numbers, and were seeded onto a 24-well plate. After 48 hours, substance P (SP) connected with a probe was added in various concentrations. After some time for reaction, the concentration of fluorescence probe-containing SP (Oregon Green488 conjugate, Molecular Probes, Eugene, Oreg.) bound to the receptor was measured with a fluorophotometer according to the number of cells and the concentrations, through which the ideal condition was established [V J. Bennett et al., BMC Chem. Biol., 1:1, 2001]. Non-peptide antagonist, L-733060 (estimated affinity=0.8nM), which selectively binds to the receptor was used as a control [R. Bang et al., J. Pharmacol. Exp. Ther., 305, p 31-39, 2003].
50% Ethanol aqueous solution extract of Atractylodes japonica was solved in DMSO (the final concentration is within 0.1%) and diluted with distilled water. […] Then, cells were dissolved in 5% Triton X-100, and their fluorescence (Ex 485/Em 528) was measured with black, opaque 96-well plate. […]

[2] = molecular target: neurokinin receptor (Homo sapiens, UniProt P25103); conditions: non-peptide antagonist which selectively binds to the receptor; cited from earlier work
Chain of neurokinin receptor (P25103 whole entry): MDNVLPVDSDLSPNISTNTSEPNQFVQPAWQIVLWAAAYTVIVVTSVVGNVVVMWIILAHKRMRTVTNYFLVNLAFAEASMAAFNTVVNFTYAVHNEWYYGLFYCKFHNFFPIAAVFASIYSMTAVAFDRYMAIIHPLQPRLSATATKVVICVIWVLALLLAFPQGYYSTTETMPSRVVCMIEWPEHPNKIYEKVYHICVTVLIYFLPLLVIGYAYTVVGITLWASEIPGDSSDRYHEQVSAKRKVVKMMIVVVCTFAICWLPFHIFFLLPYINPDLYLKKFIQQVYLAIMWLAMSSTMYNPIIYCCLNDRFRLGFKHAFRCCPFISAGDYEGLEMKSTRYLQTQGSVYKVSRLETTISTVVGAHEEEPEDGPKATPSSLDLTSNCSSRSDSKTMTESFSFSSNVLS

T1 sequence (P25103 whole entry): as above

Relative Inhibitory Activity (%) [1]: 72 ± 8 %
Structure (SMILES): FC(F)(F)c1cc(CO[C@H]2CCCN[C@H]2c2ccccc2)cc(C(F)(F)F)c1 [Extract L-733060, L-733060]
estimated affinity [2]: 0.8 nM
